Laboratory results from patent publication US6723699B1, “Treating disorders by application of insulin-like growth factors and analogs” (Cephalon, Inc., priority 1989, dated 2004).
Where no end group is shown, it is not given here. [ ]: non-standard residue; d: D form. Tyr(3,5-I2) = N[C@@H](Cc1cc(I)c(O)c(I)c1)C(=O)O

Assays:
[1] = test system: E18 cortical neuronal cultures; assay: Cortical neuronal cell survival, calcein-AM fluorometric viability assay; type: cell-based, rat; conditions: for total number of cells surviving relative to control (in words): 100 μM peptide, 4 days, insulin/serum-free media
Method: To determine whether carboxy-terminal linear peptide derivatives of IGFs can promote the survival of cortical neuronal cells, dissociated cultures of embryonic rat cortex were prepared and assayed for the total number of viable cells present after incubation in the presence or absence of peptide. Cortices were dissected from E18 embryonic rats, dissociated by enzymatic digestion or mechanical dissociation and seeded at a density of 6.25×10^4 cells/cm^2 in defined insulin/serum-free media (Bottenstein and Sato, PNAS, 76:514-517, (1979)) in the presence or absence of 100 μM peptide. […] This compound is taken up by all cells but can only be converted to a fluorescent derivative by live cells. The relative fluorescence values obtained reflect the total viable cell number. […] NO: 5) (Example 22), and the amino acid sequence […] To determine the potency of the carboxy terminal peptides we analyzed the ability of peptides to promote cell survival. We measured the total number of surviving cells within cortical neuronal cultures relative to basal control cultures. FIG. 16 illustrates the concentration-response relationship for peptide […] All peptides examined are effective within the micromolar concentration range in the fluorometric viability assay.

IGF-I receptor = molecular target: T1, IGF-I receptor (Rattus norvegicus, UniProt P24062); assay: 125I-[Threonine59]IGF-I displacement (IGF-I receptor competition) assay, rat brain homogenate; type: binding; conditions: for PERCENT MAX. BOUND: peptide 100 μM
T1 construct: Brain tissue containing the cerebral cortex and cerebellum was dissected from adult Sprague-Dawley rats; from tissue; host or cells: adult Sprague-Dawley rat brain (cerebral cortex and cerebellum), homogenate pellet
T1 sequence (P24062 31-737 limits assumed): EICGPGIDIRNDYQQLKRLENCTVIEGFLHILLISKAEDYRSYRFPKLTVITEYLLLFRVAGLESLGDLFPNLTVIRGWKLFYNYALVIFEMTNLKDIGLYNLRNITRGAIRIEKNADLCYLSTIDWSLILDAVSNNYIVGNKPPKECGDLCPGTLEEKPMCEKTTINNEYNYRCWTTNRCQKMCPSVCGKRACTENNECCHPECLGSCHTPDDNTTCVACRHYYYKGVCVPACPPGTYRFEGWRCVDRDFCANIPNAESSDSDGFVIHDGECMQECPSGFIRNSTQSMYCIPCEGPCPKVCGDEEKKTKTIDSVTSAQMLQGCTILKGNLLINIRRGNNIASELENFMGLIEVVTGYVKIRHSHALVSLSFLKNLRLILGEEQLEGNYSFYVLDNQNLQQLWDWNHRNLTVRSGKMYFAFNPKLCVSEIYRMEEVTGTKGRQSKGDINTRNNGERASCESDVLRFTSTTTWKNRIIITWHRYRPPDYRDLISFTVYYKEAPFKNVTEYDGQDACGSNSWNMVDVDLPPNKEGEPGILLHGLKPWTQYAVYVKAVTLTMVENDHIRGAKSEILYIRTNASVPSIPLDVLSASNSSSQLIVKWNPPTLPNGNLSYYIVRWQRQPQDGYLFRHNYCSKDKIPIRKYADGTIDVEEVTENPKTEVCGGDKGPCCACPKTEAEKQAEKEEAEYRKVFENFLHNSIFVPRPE
T1 sequence (P24062 742-1370 partner limits assumed): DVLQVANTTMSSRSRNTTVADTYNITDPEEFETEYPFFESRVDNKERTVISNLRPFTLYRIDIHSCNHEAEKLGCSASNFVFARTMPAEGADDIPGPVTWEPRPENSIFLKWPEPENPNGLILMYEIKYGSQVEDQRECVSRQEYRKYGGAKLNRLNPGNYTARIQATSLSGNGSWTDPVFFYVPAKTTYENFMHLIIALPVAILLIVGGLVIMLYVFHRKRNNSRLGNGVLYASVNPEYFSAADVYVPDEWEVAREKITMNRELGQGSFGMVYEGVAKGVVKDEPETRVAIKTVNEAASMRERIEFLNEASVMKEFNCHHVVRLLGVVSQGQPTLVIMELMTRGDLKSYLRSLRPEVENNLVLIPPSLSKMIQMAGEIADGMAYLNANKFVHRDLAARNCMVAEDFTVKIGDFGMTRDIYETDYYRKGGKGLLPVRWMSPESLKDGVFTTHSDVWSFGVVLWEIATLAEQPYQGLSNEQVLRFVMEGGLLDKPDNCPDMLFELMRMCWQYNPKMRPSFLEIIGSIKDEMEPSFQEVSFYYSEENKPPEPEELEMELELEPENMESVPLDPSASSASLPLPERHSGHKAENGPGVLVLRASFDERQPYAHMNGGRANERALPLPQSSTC
Method: Brain tissue containing the cerebral cortex and cerebellum was dissected from adult Sprague-Dawley rats (Hilltop Lab Animals, Inc. Scottsdale, Pa.) and homogenized at low power for 5 minutes in a Brinkmann Polytron homogenizer (Westbury, N.Y.) containing 50 volumes of ice-cold buffer consisting of 10 mM HEPES, 0.5% BSA, 0.0125% NEM, 0.025% bacitracin, and 100 KIU/ml aprotinin, pH 7.6 (Bohannon et al., Endocrinology 119:943-945 (1986). Following homogenization, the tissue was collected after centrifugation at 7800×g for 20 minutes and resuspended in 10 volumes of assay buffer. Tissue (50 μl), 100 μl ^125I-[Threonine^59]IGF-I (20 pM), and 50 μl of buffer or peptides of varying concentration were added to 96-well plates and incubated on ice for 3 hours. After the incubation period, the tissue was collected on Whatman GF/C filters that had been pre-soaked in 0.01% polyethylenimine and washed four times with ice-cold assay buffer using a Brandel cell harvester (Gaithersburg, Md.). The filters were removed and the bound ^125I-[Threonine 59]IGF-I was measured using a Beckman Model 5500B Gamma Counter.

[2] = test system: 125I-[Threonine59]IGF-I binding to brain tissue sections; assay: 125I-[Threonine59]IGF-I binding displacement on rat brain tissue sections
Method: Brains were removed intact from adult Sprague-Dawley rats, frozen on powdered dry ice, and cut into 20 μm sections (at the level of the cerebellum and brain stem) which were
thaw-mounted onto gelatin-coated glass microscope slides (Herkenham and Pert, J. Neurosci. 2:1129-1149 (1982)). Using a modification of the method of Bohannon et al. (1986), the tissue sections were covered with 250 μl of HEPES assay buffer (see Example 1) containing 0.01 nM ^125I-[Threonine^59]IGF-I alone or in combination with unlabeled IGF-I, IGF-II, or synthetic peptide fragments thereof. The sections were incubated at 4° C. for 24 hours and then rinsed in three 1-minute changes (200 ml each) of ice-cold HEPES assay buffer. The tissue sections were then wiped off the slides with filter paper, and the tissue-bound radioactivity was measured in a Beckman Model 5500B Gamma Counter.

[3] = test system: brain ornithine decarboxylase; assay: Induction of brain ornithine decarboxylase after intracerebral injection, 4 day old rats; type: in vivo, rat; conditions: 6 hours
Method: The in vivo activity of IGF-I, IGF-II or synthetic peptide derivatives of these molecules was tested using a biochemical marker for CNS neurotrophic activity, the induction of brain ornithine decarboxylase. The induction (i.e. increased activity) of ornithine decarboxylase has been reported to be a general marker for the actions of a variety of trophic factors. (Schwartz et al., Dev. Brain Res. 1:403-413 (1981); Kanje et al., Brain Res. 381:24-28 (1986); Russell et al., Life Sci. 19:1297-1306 (1976); MacDonnell et al. Proc. Natl. Acad. Sci. USA 74, 4681-4684 (1977); […] et al. Proc. Natl. Acad. Sci. USA 82, 4365-4368 (1985)). Sprague-Dawley rats, 4 days old, were injected intracerebrally (in the area of the lateral ventricle) with 5 μl of 0.1 M phosphate-buffered saline (PBS) containing IGF-I, IGF-II or a synthetic peptide derivative (1.25-2.5 μg dose, with 6 animals per treatment group). After 6 hours, the brains were removed, and ornithine decarboxylase was assayed essentially as described by Lewis et al., Proc. Natl. Acad. Sci. USA 75:1021-1023 (1978).

[4] = test system: E18 rat cortices cultures; assay: Cortical neurite outgrowth / regeneration; type: cell-based; conditions: 100 μM peptide, 96 hours
Method: To determine whether carboxy-terminal linear peptides of IGFs could promote cortical neurite regeneration, dissociated preparations of E18 rat cortices were cultured in defined insulin/serum-free media in the presence or absence of 100 μM peptides: IGF-II(54-67) (SEQ ID NO:3), IGF-I(55-70) (SEQ ID NO:4), peptide TYCAPAKSE (SEQ ID NO:1), peptide EPYCAPPAKSE (SEQ ID NO:5), IGF-II(54-67; D-Y) (SEQ ID NO:45) and IGF-II(58-67) (SEQ ID NO:2). The cultures were observed 96 hours after peptide exposure and photomicrographs were taken.

[5] = test system: cultured rat cortical cells; assay: [3H]-leucine incorporation in cultured rat cortical cells; type: cell-based; conditions: low density 24 hour mixed cortical cultures
Method: (§1) The ability of IGF-I and a synthetic derivative of IGF-II (IGF-II(54-67)) to increase the incorporation of [^3H]-leucine and to promote the survival of neurite bearing cells was examined in cultured rat cortical cells (the numbers “54-67” in IGF-II indicate the fragment includes amino acid residues 54-67 of native IGF-II).
(§2) Measurements were performed, using standard techniques known to those skilled in the art, on dissociated cortical cells obtained from day 18-19 embryonic rats. Cells were seeded at 1.5×10^4/cm^2 on poly-1-ornithine-laminin coated plastic tissue culture cells in serum-free N2 medium (Bottenstein et al. Proc. Natl. Acad. Sci. U.S.A. 76: 514-517 (1978)). [^3H]-leucine was added to cells at plating for the incorporation assay. Cultures were terminated 24 hours after plating and measured for either [^3H]-leucine incorporation or for the number of neuritic cells by microscopic examination.

cortical neurons = assay: Survival of neurite bearing cells in cultured rat cortical cells; type: cell-based; conditions: 24 hours after plating
Method: as §1, §2

[6] = type: in vitro ADME
Method: The peptides of Examples 22 and 23 are modified peptides containing the D isomer of tyrosine (D-Y) at position 59 within IGF-II amino acids 54-67 or 58-67. These modifications were made to prevent peptide bond degradation due to enzymatic cleavage amino terminal to position 60 of IGF-II(54-67) and (58-67). Using a non-denaturing HPLC size exclusion chromatography technique the integrity of peptides IGF-II(54-67) and IGF-II(58-67) was analyzed before and after incubation with cells.

Substance | total number of cells surviving relative to control (in words) [1] | other results
ALLEKYCAKPAKSE [ALLEK YCAKP AKSE] | increased the total number of cells surviving | –
ALLET YCATP AKSE (ALLETYCATPAKSE) [IGF-II(54-67)] | increased the total number of cells surviving | PERCENT MAX. BOUND (IGF-I receptor): 94%; displacement of 125I-[Threonine59]IGF-I (in words) (IGF-I receptor; rat brain homogenate): not significantly effective displacers; PERCENT MAX. BOUND ([2]; peptide .025 mM): 132%; PERCENT MAX. BOUND ([2]; peptide .25 mM): 167%; brain ornithine decarboxylase activity (in words) [3]: increased brain ornithine decarboxylase activity; neurite outgrowth / regeneration (in words) [4]: neurite regenerative responses were observed; [3H]-leucine incorporation (in words) [5]: increased [^3H]-leucine incorporation; survival of cortical neurons (neurite bearing cells) (in words) (cortical neurons): increased the survival of cortical neurons
ALLETDYCATPAKSE (ALLET[dY]CATPAKSE) [IGF-II(54-67; D-Y)] | increased the total number of cells surviving | neurite outgrowth / regeneration (in words) [4]: neurite regenerative responses were observed; stability against degradation when incubated with cells (in words) [6]: stabilized against degradation when incubated with cells
APLKP AKSA (APLKPAKSA) [IGF-I(62-70)] | – | PERCENT MAX. BOUND (IGF-I receptor): 83%
APSTCEYKA [APSTC EYKA] | increased the total number of cells surviving | –
CAPAKSE [CAPAK SE] | increased the total number of cells surviving | –
CATPA KSE (CATPAKSE) [IGF-II (60-67)] | increased the total number of cells surviving | –
EALLETYCATPAKSE [EALLE TYCAT PAKSE] | increased the total number of cells surviving | –
EPYCAPPAKSE | increased the total number of cells surviving | neurite outgrowth / regeneration (in words) [4]: neurite regenerative responses were observed
GYGSS SRRAP QT (GYGSSSRRAPQT) [IGF-I(30-41)] | – | PERCENT MAX. BOUND (IGF-I receptor): 94%
LETYC ATP (LETYCATP) [IGF-II (56-63)] | increased the total number of cells surviving | –
RRLEMYCAPLKPAKSA [IGF-I(55-70)] | increased the total number of cells surviving | neurite outgrowth / regeneration (in words) [4]: neurite regenerative responses were observed
TDYCAPAKSE (T[dY]CAPAKSE) | increased the total number of cells surviving | –
TDYCATPAKSE (T[dY]CATPAKSE) [IGF-II(58-67; D-Y)] | increased the total number of cells surviving | –
TPAKS E (TPAKSE) [IGF-II(62-67)] | – | PERCENT MAX. BOUND (IGF-I receptor): 83%
TY(I2)CAP AKSE (T[Tyr(3,5-I2)]CAPAKSE) [iodinated-TYCAPAKSE] | increased the total number of cells surviving | –
TYCAP A (TYCAPA) | increased the total number of cells surviving | –
TYCAPAKSE | increased the total number of cells surviving | concentration-response of cortical neuronal cell survival (in words) ([1]; relative to basal control cultures): promotes cortical neuronal cell survival in a dose-dependent manner; neurite outgrowth / regeneration (in words) [4]: neurite regenerative responses were observed
TYCAT PAK (TYCATPAK) [IGF-II (58-65)] | increased the total number of cells surviving | –
TYCATPAKSE [IGF-II(58-67)] | increased the total number of cells surviving | neurite outgrowth / regeneration (in words) [4]: neurite regenerative responses were observed
YCAPA | increased the total number of cells surviving | –
YCAPAKSE [YCAPA KSE] | increased the total number of cells surviving | –
